Data as given in patent US4233224A, “Coriolin derivatives” (priority 1978, dated 1980).
≈ marks a conversion by molar mass, not a printed value. Like-named read-outs stand apart in the source and are kept apart here.

Experiments:
HeLa S3 cells [1] = assay: cells; format: cell-based; settings: for inhibition at 1 µg/mL: 1 μg/ml; for inhibition at 2 µg/mL: 2 μg/ml
Protocol: The HeLa S3 cells were scattered in a plastic laboratory dish, 6 cm in diameter, at the rate of 0.7×10^5 cells/plate by using as a medium an Eagle's MEM (Minimum Essential Medium) [Science, 30, 432-437 (1959)] containing 60 μg/ml of kanamycin and 10% calf serum. On the 2nd day, the medium was removed and a measured quantity of the compound of this invention was added together with a fresh serum-impregnated Eagle's MEM. The cell population at this time was 1.58×10^5 cells/plate. After adding the compound (I) of this invention thereto, cultures were grown for 3 days and then the medium was removed, followed by washing with physiological saline, treatment with 0.05% trypsin at room temperature for about 15 minutes and pipetting to disperse the cells. The cell number was counted by a counter and percent inhibition (%) was calculated from the number of the control cells (to which no compound was added) to determine […]. [formula]

[2] = system: L-1210 (lymphatic leukemia strain); assay: Life-prolonging effect in cancer (L-1210) affected mice; format: in vivo, mouse (BDF1); settings: once a day for 10 days, from 24 hours after intraperitoneal inoculation of 1×10^5 L-1210 cells, BDF1 mice, compared with control group
Protocol: The L-1210 cells (1×10^5, 0.05 ml) were inoculated into the BDF1 mouse abdorminal cavities (BDF1 means a strain name of mouse), and after lapse of 24 hours, a measured amount of preparation (suspended in 0.5% CMC aqueous solution) was administered once a day for a period of 10 days.
The mice were observed till death, and by comparing the average number of surviving days of the tested mice with that of the control group (to which a 0.5% CMC aqueous solution alone was given), the life prolongation rate was calculated from the following formula: [drawing 17]

[3] = known coriolin type compounds; J. Antibiotics, Tetrahedron Letters; cited from earlier work
HeLa S3 cells [4] = assay: cells; format: cell-based; settings: Homo sapiens, 72 h, 3 days, read-out: ID50 (the source's name)
[5] = Homo sapiens, HeLa S3, 72 h, read-out: Percent inhibition
[6] = Homo sapiens, 72 h, 0.5 μg/ml, HeLa S3 cells, 3 days, read-out: Percent inhibition
[7] = Homo sapiens, 72 h, HeLa S3 cells, 3 days, read-out: Percent inhibition

For `C=C1CC2(OC1=O)[C@H]1O[C@]13C1(CC(=C)C(=O)O1)[C@H]1CC(C)(C)[C@H](OC(=O)CCCCCCC)[C@H]1[C@]3(C)[C@]21CO1` (stereo partly drawn) [V, 1α-octanoyl-4β,15:6β,7β-dioxide-5(19-methylene-18-butanolide)-8(22-methylene-21-butanolide)hirsutane], the IC50 (HeLa S3 cells [1]; Homo sapiens, HeLa S3, 72 h, read-out: ID50) was 0.47 µg/mL (≈ 0.869 µM), the inhibition at 0.25 µg/mL (HeLa S3 cells [1]; [5]) was 22.4% and the inhibition at 0.5 µg/mL (HeLa S3 cells [1]; [5]) was 56.9%. For the same compound, the Life-prolonging effect (life prolongation rate) ([2]; dose 100 μg/mouse × 10) was 99% and the Life-prolonging effect (life prolongation rate) ([2]; dose 200 μg/mouse × 10) was 120%.
For coriolin C, the “anti-tumor activity (in words)” value [3] is given as “having an anti-tumor activity”.
With `C=C1CC2(OC1=O)[C@H]1O[C@]13C(=O)[C@H]1CC(C)(C)[C@H](OC(=O)CCCCCCC)[C@H]1[C@]3(C)[C@]21CO1` (stereo partly drawn) [IV, 1α-octanoyl-4β,15:6β,7β-dioxide-5(19-methylene-18-butanolide)-8-oxo-hirsutane] the IC50 (HeLa S3 cells [4]) was 0.6 µg/mL (≈ 1.27 µM), the inhibition at 0.5 µg/mL (HeLa S3 cells [1]; [6]) was 43.3% and the inhibition at 1 µg/mL (HeLa S3 cells [1]; [7]) was 71.6%. It also gave a Life-prolonging effect (life prolongation rate) ([2]; dose 12.5 μg/mouse × 10) of 99%, a Life-prolonging effect (life prolongation rate) ([2]; dose 25 μg/mouse × 10) of 113% and a Life-prolonging effect (life prolongation rate) ([2]; dose 50 μg/mouse × 10) of 106%. For the same compound, the Life-prolonging effect (life prolongation rate) ([2]; dose 100 μg/mouse × 10) was 127% and the Life-prolonging effect (life prolongation rate) ([2]; dose 200 μg/mouse × 10) was 127%.
In the case of `CCCCCCCC(=O)O[C@@H]1[C@@H]2[C@H](CC1(C)C)C(=O)[C@@]13O[C@@H]1C(=O)[C@@]1(CO1)[C@@]23C` [5,8-dehydrocoriolin B], the “anti-tumor activity (in words)” value [3] is given as “having an anti-tumor activity”.
In the case of `C=C1CC2(OC1=O)[C@H]1O[C@]13[C@@H](O)[C@H]1CC(C)(C)[C@H](OC(=O)CCCCCCC)[C@H]1[C@]3(C)[C@]21CO1` (stereo partly drawn) [III, 1α-octanoyl-4β,15:6β,7β-dioxide-5(19-methylene-18-butanolide)-8β-hydroxy-hirsutane], the IC50 (HeLa S3 cells [4]) is reported as 1.1 µg/mL (≈ 2.32 µM), the inhibition at 1 µg/mL (HeLa S3 cells [1]; [7]) is reported as 42.9% and the inhibition at 2 µg/mL (HeLa S3 cells [1]; [7]) is reported as 96.6%. It also gave a Life-prolonging effect (life prolongation rate) ([2]; dose 6 μg/mouse × 10) of 99%, a Life-prolonging effect (life prolongation rate) ([2]; dose 12.5 μg/mouse × 10) of 106% and a Life-prolonging effect (life prolongation rate) ([2]; dose 25 μg/mouse × 10) of 127%. For the same compound, the Life-prolonging effect (life prolongation rate) ([2]; dose 50 μg/mouse × 10) was 141%, the Life-prolonging effect (life prolongation rate) ([2]; dose 100 μg/mouse × 10) was 148% and the Life-prolonging effect (life prolongation rate) ([2]; dose 200 μg/mouse × 10) was 148%.
In the case of `CCCCCCCC(=O)O[C@@H]1[C@@H]2[C@H](CC1(C)C)[C@H](O)[C@@]13O[C@@H]1C(=O)[C@@]1(CO1)[C@@]23C` [5-dehydrocoriolin B VI, 5-dehydrocoriolin B, reference compound], the “anti-tumor activity (in words)” value [3] is given as “having an anti-tumor activity”, the IC50 (HeLa S3 cells [4]) is given as 0.76 µg/mL (≈ 1.87 µM) and the inhibition at 0.5 µg/mL (HeLa S3 cells [1]; [6]) is given as 20%. The inhibition at 1 µg/mL (HeLa S3 cells [1]; [7]) was 77.6%, the Life-prolonging effect (life prolongation rate) ([2]; dose 6 μg/mouse × 10) was 106% and the Life-prolonging effect (life prolongation rate) ([2]; dose 12.5 μg/mouse × 10) was 138%. For the same compound, the Life-prolonging effect (life prolongation rate) ([2]; dose 25 μg/mouse × 10) was 137% and the Life-prolonging effect (life prolongation rate) ([2]; dose 50 μg/mouse × 10) was 144%.
For coriolin, the “anti-tumor activity (in words)” value [3] is listed as “having an anti-tumor activity”.
In the case of `C=C1CC2(OC1=O)[C@H]1CC(C)(C)[C@H](OC(=O)CCCCCCC)[C@H]1[C@]1(C)[C@]3(CO3)C(=O)[C@H]3O[C@@]321` (stereo partly drawn) [II, 1α-octanoyl-4β,15:6β,7β-dioxide-5-oxo-8(22-methylene-21-butanolide)hirsutane], the IC50 (HeLa S3 cells [4]) is reported as 0.12 µg/mL (≈ 0.254 µM), the “inhibiting growth of the HeLa S3 cells (in words)” value (HeLa S3 cells [1]; HeLa S3 cells) is reported as “works marvelously in preventing growth of the cancerous cells” and the inhibition at 0.1 µg/mL (HeLa S3 cells [1]; Homo sapiens, 72 h, 0.1 μg/ml, HeLa S3 cells, 3 days, read-out: Percent inhibition) is reported as 40.2%. For the same compound, the inhibition at 0.2 µg/mL (HeLa S3 cells [1]; Homo sapiens, 72 h, 0.2 μg/ml, HeLa S3 cells, 3 days, read-out: Percent inhibition) was 83.2% and the “toxicity (in words)” value (HeLa S3 cells [1]; stated with ID50, HeLa S3 cells) was “extremely low in toxicity”.
With `C=C1CC2(OC1=O)[C@H]1CC(C)(C)[C@H](OC(=O)CCCCCCC)[C@H]1[C@]1(C)[C@]3(CO3)[C@@H](O)[C@H]3O[C@@]321` (stereo partly drawn) [I, 1α-octanoyl-4β, 15:6β,7β-dioxide-5β-hydroxy-8(22-methylene-21-butanolide)hirsutane] the IC50 (HeLa S3 cells [4]) was 2.1 µg/mL (≈ 4.42 µM), the inhibition at 2 µg/mL (HeLa S3 cells [1]; [7]) was 48% and the inhibition at 4 µg/mL (HeLa S3 cells [1]; Homo sapiens, 72 h, 4 μg/ml, HeLa S3 cells, 3 days, read-out: Percent inhibition) was 76.2%. It also gave a Life-prolonging effect (life prolongation rate) ([2]; dose 50 μg/mouse × 10) of 96%, a Life-prolonging effect (life prolongation rate) ([2]; dose 100 μg/mouse × 10) of 111% and a Life-prolonging effect (life prolongation rate) ([2]; dose 200 μg/mouse × 10) of 130%.
